Reference: patent US20260297081A1, “COMPOUNDS AND METHODS OF TREATING CANCERS” (Cullgen Inc., priority 2023, published 2026)

Legend:
MCF7 cells = assay: Anti-proliferation (viability) of MCF7 cells (Table 7, FIG. 2B); format: cell-based; conditions: Homo sapiens, MCF7, MCF7 cells, 3-6 days, 10-point serial dilution; read-out: GI IC50 in MCF-7
CDK4 = CDK4 (Homo sapiens, UniProt P11802+Q16531); assay: CDK4 percentage degradation in Calu-1 cells (Table 6); format: cell-based; design: Cells that express cyclin D1-3 and CDK4/6 proteins were treated with heterobifunctional compounds; endogenous in cells; host or cells: Calu-1; conditions: 16 hours; for inhibition at 0.04 µM: 40 nM; for inhibition at 0.2 µM: 200 nM
Chain of CDK4 (P11802 2-303 limits assumed): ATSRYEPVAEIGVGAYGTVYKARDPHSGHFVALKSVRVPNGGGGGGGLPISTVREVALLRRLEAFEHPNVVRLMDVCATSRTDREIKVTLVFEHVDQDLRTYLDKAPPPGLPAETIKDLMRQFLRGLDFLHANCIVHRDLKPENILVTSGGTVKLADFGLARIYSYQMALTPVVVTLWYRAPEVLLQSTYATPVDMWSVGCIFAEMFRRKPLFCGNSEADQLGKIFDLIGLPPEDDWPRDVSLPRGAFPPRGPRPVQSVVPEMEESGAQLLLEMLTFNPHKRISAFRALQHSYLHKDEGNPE
Chain of CDK4 (P24385 whole entry partner): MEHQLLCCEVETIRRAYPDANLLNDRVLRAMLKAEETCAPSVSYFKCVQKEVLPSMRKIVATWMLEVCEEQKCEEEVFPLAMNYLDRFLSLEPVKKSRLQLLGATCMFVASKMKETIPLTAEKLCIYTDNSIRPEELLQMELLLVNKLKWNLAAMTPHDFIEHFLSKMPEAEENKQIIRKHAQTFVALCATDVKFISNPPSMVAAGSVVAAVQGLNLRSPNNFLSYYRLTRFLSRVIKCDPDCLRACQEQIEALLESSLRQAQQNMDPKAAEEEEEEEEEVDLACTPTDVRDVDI
Chain of CDK4 (Q16531 2-1140 limits assumed): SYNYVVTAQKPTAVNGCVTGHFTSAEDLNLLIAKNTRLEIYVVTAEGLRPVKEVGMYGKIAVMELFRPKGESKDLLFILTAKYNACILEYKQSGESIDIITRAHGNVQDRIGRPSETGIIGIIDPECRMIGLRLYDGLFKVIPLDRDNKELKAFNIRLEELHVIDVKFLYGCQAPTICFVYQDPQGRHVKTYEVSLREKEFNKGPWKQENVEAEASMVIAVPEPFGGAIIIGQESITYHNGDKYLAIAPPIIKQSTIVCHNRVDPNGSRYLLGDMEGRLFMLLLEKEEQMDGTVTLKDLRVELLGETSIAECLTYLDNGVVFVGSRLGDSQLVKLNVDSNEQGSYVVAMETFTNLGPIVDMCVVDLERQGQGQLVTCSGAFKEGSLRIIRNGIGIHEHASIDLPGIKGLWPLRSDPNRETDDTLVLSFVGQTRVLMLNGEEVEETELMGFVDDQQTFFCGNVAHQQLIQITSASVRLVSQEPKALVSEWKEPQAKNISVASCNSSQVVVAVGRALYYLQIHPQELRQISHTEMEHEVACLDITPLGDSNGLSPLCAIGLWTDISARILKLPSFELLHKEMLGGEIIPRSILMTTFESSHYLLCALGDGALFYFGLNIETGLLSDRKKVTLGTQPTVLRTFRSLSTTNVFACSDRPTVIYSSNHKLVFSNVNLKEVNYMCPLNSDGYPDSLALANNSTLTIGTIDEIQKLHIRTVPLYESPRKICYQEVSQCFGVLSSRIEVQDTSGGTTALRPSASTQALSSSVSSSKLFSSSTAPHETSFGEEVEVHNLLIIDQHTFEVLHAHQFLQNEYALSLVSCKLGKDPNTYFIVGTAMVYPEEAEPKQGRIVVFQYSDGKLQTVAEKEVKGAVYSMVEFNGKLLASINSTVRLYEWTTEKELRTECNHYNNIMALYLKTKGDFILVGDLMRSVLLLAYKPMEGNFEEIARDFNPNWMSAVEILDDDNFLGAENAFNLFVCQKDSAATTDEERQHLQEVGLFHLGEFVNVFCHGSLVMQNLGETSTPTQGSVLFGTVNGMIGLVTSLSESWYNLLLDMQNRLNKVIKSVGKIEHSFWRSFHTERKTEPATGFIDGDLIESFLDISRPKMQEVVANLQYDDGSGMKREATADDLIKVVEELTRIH
Outline: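 Percentage degradation of Cyclin D1 and CDK4 derived from densitometry of ECL Western blots on lysates of Calu-1 cells. Treatment was 16 h with compound at either 40 nM or 200 nM.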

Compound	IC50 (MCF7 cells)	inhibition at 0.04 µM (CDK4)	inhibition at 0.2 µM (CDK4)
[2H]C([2H])([2H])Nc1ccc(C(=O)Nc2cccc(C)n2)c(NC2CC3(CC(NC(=O)CN4CCN(c5ccc(Nc6ncc7c(C)c(C(C)=O)c(=O)n(C8CCCC8)c7n6)nc5)CC4)C3)C2)n1 (stereo not drawn) [CPD-232, 2-((6-(2-(4-(6-((6-acetyl-8-cyclopentyl-5-methyl-7-oxo-7,8-dihydropyrido[2,3-d]pyrimidin-2-yl)amino)pyridin-3-yl)piperazin-1-yl)acetamido)spiro[3.3]heptan-2-yl)amino)-6-((methyl-d3)amino)-N-(6-methylpyridin-2-yl)nicotinamide]	50 to 100 nM	30 to 50%	50 to 80%
[2H]C([2H])([2H])Nc1ccc(C(=O)Nc2cn(C)c(C3CC3)n2)c(NC2CC3(CC(NC(=O)CN4CCN(c5ccc(Nc6ncc7c(C)c(C(C)=O)c(=O)n(C8CCCC8)c7n6)nc5)CC4)C3)C2)n1 (stereo not drawn) [CPD-237, 2-((6-(2-(4-(6-((6-acetyl-8-cyclopentyl-5-methyl-7-oxo-7,8-dihydropyrido[2,3-d]pyrimidin-2-yl)amino)pyridin-3-yl)piperazin-1-yl)acetamido)spiro[3.3]heptan-2-yl)amino)-N-(2-cyclopropyl-1-methyl-1H-imidazol-4-yl)-6-((methyl-d3)amino)nicotinamide]	> 100 nM	50 to 80%	50 to 80%
CNc1ccc(C(=O)Nc2ccc(N(C)C)nn2)c(NC2CC(NC(=O)C(C)N3CCN(c4ccc(Nc5ncc6c(C)c(C(C)=O)c(=O)n(C7CCCC7)c6n5)nc4)CC3)C2)n1 (stereo not drawn) [CPD-242, 2-((3-(2-(4-(6-((6-acetyl-8-cyclopentyl-5-methyl-7-oxo-7,8-dihydropyrido[2,3-d]pyrimidin-2-yl)amino)pyridin-3-yl)piperazin-1-yl)propanamido)cyclobutyl)amino)-N-(6-(dimethylamino)pyridazin-3-yl)-6-(methylamino)nicotinamide]	> 100 nM	50 to 80%	50 to 80%
[2H]C([2H])([2H])Nc1ccc(C(=O)Nc2cc(C)n(C)n2)c(NC2CC3(CC(NC(=O)CN4CCN(c5ccc(Nc6ncc7c(C)c(C(C)=O)c(=O)n(C8CCCC8)c7n6)nc5)CC4)C3)C2)n1 (stereo not drawn) [CPD-244, 2-((6-(2-(4-(6-((6-acetyl-8-cyclopentyl-5-methyl-7-oxo-7,8-dihydropyrido[2,3-d]pyrimidin-2-yl)amino)pyridin-3-yl)piperazin-1-yl)acetamido)spiro[3.3]heptan-2-yl)amino)-N-(1,5-dimethyl-1H-pyrazol-3-yl)-6-((methyl-d3)amino)nicotinamide]	50 to 100 nM	30 to 50%	50 to 80%
CC(=O)c1c(C)c2cnc(Nc3ccc(N4CCN(CC5(C(=O)N6CC7(CC(Nc8nc(NC(C)C)ccc8C(=O)Nc8cn(C)c(C9CC9)n8)C7)C6)CC5)CC4)cn3)nc2n(C2CCCC2)c1=O [CPD-322, 2-((2-(1-((4-(6-((6-acetyl-8-cyclopentyl-5-methyl-7-oxo-7,8-dihydropyrido[2,3-d]pyrimidin-2-yl)amino)pyridin-3-yl)piperazin-1-yl)methyl)cyclopropane-1-carbonyl)-2-azaspiro[3.3]heptan-6-yl)amino)-N-(2-cyclopropyl-1-methyl-1H-imidazol-4-yl)-6-(isopropylamino)nicotinamide]	< 50 nM	< 30%	< 30%

Further lines, results first:

IC50 (MCF7 cells)	inhibition at 0.04 µM (CDK4)	inhibition at 0.2 µM (CDK4)	Compound
50 to 100 nM	50 to 80%	50 to 80%	CNc1ccc(C(=O)Nc2ccc(N(C)C)nn2)c(N[C@H]2CC[C@H](NC(=O)CCN3CCN(c4ccc(Nc5ncc6c(C)c(C(C)=O)c(=O)n(C7CCCC7)c6n5)nc4)CC3)CC2)n1 [CPD-223, 2-((trans-4-(3-(4-(6-((6-acetyl-8-cyclopentyl-5-methyl-7-oxo-7,8-dihydropyrido[2,3-d]pyrimidin-2-yl)amino)pyridin-3-yl)piperazin-1-yl)propanamido)cyclohexyl)amino)-N-(6-(dimethylamino)pyridazin-3-yl)-6-(methylamino)nicotinamide]
< 50 nM	30 to 50%	30 to 50%	CNc1ccc(C(=O)Nc2ccc(N(C)C)nn2)c(NC2CC3(C2)CN(C(=O)CC(C)N2CCN(c4ccc(Nc5ncc6c(C)c(C(C)=O)c(=O)n(C7CCCC7)c6n5)nc4)CC2)C3)n1 (stereo not drawn) [CPD-224, 2-((2-(3-(4-(6-((6-acetyl-8-cyclopentyl-5-methyl-7-oxo-7,8-dihydropyrido[2,3-d]pyrimidin-2-yl)amino)pyridin-3-yl)piperazin-1-yl)butanoyl)-2-azaspiro[3.3]heptan-6-yl)amino)-N-(6-(dimethylamino)pyridazin-3-yl)-6-(methylamino)nicotinamide]
50 to 100 nM	50 to 80%	50 to 80%	[2H]C([2H])([2H])Nc1ccc(C(=O)Nc2ccc(N(C)C)nn2)c(NC2CC3(CC(NC(=O)CN4CCN(c5ccc(Nc6ncc7c(C)c(C(C)=O)c(=O)n(C8CCCC8)c7n6)nc5)CC4)C3)C2)n1 (stereo not drawn) [CPD-241, 2-((6-(2-(4-(6-((6-acetyl-8-cyclopentyl-5-methyl-7-oxo-7,8-dihydropyrido[2,3-d]pyrimidin-2-yl)amino)pyridin-3-yl)piperazin-1-yl)acetamido)spiro[3.3]heptan-2-yl)amino)-N-(6-(dimethylamino)pyridazin-3-yl)-6-((methyl-d3)amino)nicotinamide]
50 to 100 nM	30 to 50%	50 to 80%	[2H]C([2H])([2H])Nc1ccc(C(=O)Nc2ccc(N(C)C)nn2)c(NC2CCN(C(=O)CN3CCN(c4ccc(Nc5ncc6c(C)c(C(C)=O)c(=O)n(C7CCCC7)c6n5)nc4)CC3)CC2)n1 [CPD-250, 2-((1-(2-(4-(6-((6-acetyl-8-cyclopentyl-5-methyl-7-oxo-7,8-dihydropyrido[2,3-d]pyrimidin-2-yl)amino)pyridin-3-yl)piperazin-1-yl)acetyl)piperidin-4-yl)amino)-N-(6-(dimethylamino)pyridazin-3-yl)-6-((methyl-d3)amino)nicotinamide]
50 to 100 nM	< 30%	< 30%	CNc1ccc(C(=O)Nc2ccc(N(C)C)nn2)c(NC2CCN(C(=O)CN3CCN(Cc4ccc(Nc5ncc6c(C)c(C(C)=O)c(=O)n(C7CCCC7)c6n5)nc4)CC3)CC2)n1 [CPD-300, 2-((1-(2-(4-((6-((6-acetyl-8-cyclopentyl-5-methyl-7-oxo-7,8-dihydropyrido[2,3-d]pyrimidin-2-yl)amino)pyridin-3-yl)methyl)piperazin-1-yl)acetyl)piperidin-4-yl)amino)-N-(6-(dimethylamino)pyridazin-3-yl)-6-(methylamino)nicotinamide]
< 50 nM	30 to 50%	30 to 50%	CC(=O)c1c(C)c2cnc(Nc3ccc(N4CCN(CC(=O)NCC5CC(Nc6nc(NC(C)C)ccc6C(=O)Nc6ccc(N(C)C)nn6)C5)CC4)cn3)nc2n(C2CCCC2)c1=O (stereo not drawn) [CPD-316, 2-((3-((2-(4-(6-((6-acetyl-8-cyclopentyl-5-methyl-7-oxo-7,8-dihydropyrido[2,3-d]pyrimidin-2-yl)amino)pyridin-3-yl)piperazin-1-yl)acetamido)methyl)cyclobutyl)amino)-N-(6-(dimethylamino)pyridazin-3-yl)-6-(isopropylamino)nicotinamide]
